From US20210040452A1, “HEMATOPOIETIC CELLS AND METHODS OF USING AND GENERATING THE SAME” (The Regents of the University of California, priority 2015, published 2021)

Key:
[1] = test system: wild type E11 whole AGM explants; test: AGM explant culture with DAPT, HE ratio by FACS; format: cell-based, mouse
Source text: Currently it is not possible to predict which specific endothelial cell within a hemogenic vascular bed will transition to a hematopoietic fate. Also not known is whether endothelial cells comprising the same hemogenic site are all capable of EHT. So whether the actual cell fate conversion is a stochastic event or a predetermined fate change remains to be seen. To circumvent the current obstacles of EHT prediction, we adopted a fate tracing strategy^48 that allows measurement of traced hematopoietic cell populations from labeled endothelial precursors within a specific hemogenic vascular site. By inducing endothelial recombination of Sox17 in AGM explants using the Cdh5(PAC)-CreERT2/RTom/Sox17flox transgenic mouse line, the number of EHT derived hematopoietic cells can be quantified through fate mapping (FIG. 13c, and FIG. 25C). Tamoxifen induction in vitro with the active metabolite 4-hydroxytamoxifen (4-OHT) at E11.0 allows immediate ablation in AGM explants during EHT, and the calculation of a HE ratio which we define as traced hematopoietic cells (HCs) compared to traced endothelial cells (ECs). […] The observed increase in HE ratios and HSPC number is not due to proliferation effects (as measured by BrdU incorporation, FIG. 25D), nor is the higher HE ratio due to changes in cell death (Annexin-V staining, supplementary FIG. 25D). We also observe increases in maturing hematopoietic populations (CD31−CD117+Sca1+Td+), FIG. 25E. In addition, when a similar strategy is applied to earlier explants (E9.5) prior to hematopoietic cell cluster emergence, we observe similar trends in the HE ratio (FIG. 25F). […] To further evaluate the role of Sox17 in this process, we undertook gain-of-function studies in wildtype AGM explants using adenoviral-mediated overexpression of human Sox17 (AdhSox17-GFP), FIG. 13g. GFP expression in explants overlapped with SOX17 co-staining (FIG. 13h), allowing for cell sorting of AGM endothelial cells (CD31+) that were either successfully infected (GFP+) or not infected (GFP−) by AdhSox17-GFP, FIG. 13i. […] We also show the known positive regulation of Notch1 by Sox17, and regulation of other SoxF family members, Sox7 and Sox18.
Whole embryos or AGMs were dissociated as described67 and stained for 30 min at 4° C. with agitation. Single cell suspensions were sorted in a BD FACS Aria III. Flow cytometric analyses were performed on a FACS Verse or FACS Aria III with FACSDiva 8.0 software (BD Biosciences) and data analyzed using FlowJo v10.0.7 (Tree Star). Gating strategy in FIG. 25C, see Table 7 for a list of antibodies.
AGMs from Cdh5(PAC)-CreERT2/R26RTd/Sox17 and Notch1 floxed embryos were dissected and cultured for 24 hrs in 4-hydroxytamoxifen 4-OHT (Sigma H7904) as previously described48, at E11 (and E9.5 for Sox17 mutants). In vivo induction was achieved by intraperitoneal injection of 0.8 mg of tamoxifen of pregnant dams at E9.5. Tamoxifen (MP Biomedical, 156738) prepared as previously described48. DAPT γ-secretase inhibitor (Sigma, D5942) was prepared in DMSO and added directly to explant culture medium at final concentrations of 25 μM, 50 μM, 100 μM, or 200 μM. For overexpression studies, AGMs were incubated with 8×10^7 adenoviral particles per milliliter at 37 C with agitation for 1 hr prior to explant culture48. Adeno-CMV-hSox17-GFP (AdhSox17-GFP) was produced by Vector Biolabs (ADV-224019, Ref Seq: BC140307).

mouse embryos at E12.5 = test: Mitotic arrest by nocodazole injection into mouse embryos; format: in vivo; conditions: E12.5, 2 hrs prior to sacrifice
murine HSPCs = test: Addition of Tgfβ1 to newly formed murine HSPCs; format: cell-based; conditions: preliminary mouse studies

For `C[C@H](NC(=O)Cc1cc(F)cc(F)c1)C(=O)N[C@H](C(=O)OC(C)(C)C)c1ccccc1` [DAPT], the “HE ratios after AGM explants were exposed” value [1] was “increased HE ratios”, the “HE ratio in comparison to control” value ([1]; 50-100 μM DAPT, 24 hours, control DMSO) was “significant increase” and the “Wildtype HE ratio (DAPT), Mean” value ([1]; WT + 25 μM, 24 hours) was 0.9771. The “Wildtype HE ratio (DAPT), Mean” value ([1]; WT + 50 μM, 24 hours) was 0.9702, the “Wildtype HE ratio (DAPT), Mean” value ([1]; WT + 100 μM, 24 hours) was 0.9649 and the “Wildtype HE ratio (DAPT), Mean” value ([1]; WT + 200 μM, 24 hours) was 0.8264.

For `COC(=O)Nc1nc2ccc(C(=O)c3cccs3)cc2[nH]1` [nocodazole], the “mitotic arrest in the endothelium” value (mouse embryos at E12.5) was “not arrested in mitosis” and the “mitotic arrest in the myocardium” value (mouse embryos at E12.5) was “multiple cell division arrests”.

With Tgfβ1: transforming growth factor β1 the “maturation of HSPCs” value (murine HSPCs) was “may accelerate their maturation”.
